Molecules are shown by their SMILES.

This experiment is described as follows: Revised Biochemical Assay: Compounds of the invention may be tested for in vitro activity in the following assay: A histone H4 derived peptide is used as substrate (amino acid sequence: […]N H2). Full-length PRMT5 enzyme (NCBI Reference sequence NP_006100.2) was co-expressed with His6-MEP50 in insect cells and purified via Nickel immobilized metal affinity and gel filtration chromatography (the enzyme).The 6 μL reactions are run in Greiner brand black 384-well low volume assay plates. All reactions contained assay buffer (phosphate buffered saline, 0.01% (v/v) Tween-20, 0.01% (w/v) albumin from chicken egg white, 1 mM Dithiothreitol, 1 μM peptide substrate, 1 μM S-Adenosyl methionine, and 15 ng/reaction enzyme, with the enzyme being omitted from negative control reactions. Compounds were added in a volume of 100 nL from dilution series prepared in DMSO, positive and negative control reactions receiving the same volume DMSO without compound. The plates were sealed with adhesive seals and incubated for 4 hours at 37 degree Celsius. Reaction progress was measured using the Transcreener EPIGEN methyltransferase assay (BellBrook Labs, Madison, Wis.) as recommended by the manufacturer. To each reaction 2 μL detection mix were added, containing coupling enzymes, fluorescence polarisation tracer, and AMP antibody. Plates were incubated for 90 minutes before being read on a PerkinElmer EnVision plate reader in fluorescence polarisation mode.
As for `O=C(NC[C@@H](O)[C@@H]1Cc2ccccc2CN1)c1ccc2[nH]ncc2c1`, 2740 nM corresponded to half-maximal inhibition (IC50).

As for `Cc1ccc(C(=O)NC[C@@H](O)[C@@H]2Cc3ccccc3CN2)cn1`, the IC50 amounted to 4660 nM.

Compound `COC(=O)N1[C@@H]2CC[C@H]1CC(Oc1cc(C(=O)NC[C@@H](O)[C@@H]3Cc4ccccc4CN3)ccn1)C2` (stereo partly drawn) displayed an IC50 of 38 nM.

Values taken from ChEMBL document CHEMBL5727426, “Tetrahydroisoquinoline derived PRMT5-inhibitors” (2019).
